Assay results published in article PMC11303713, “Allosteric inhibition of CFTR gating by CFTRinh-172 binding in the pore” (Nature Communications, 2024).
“And” between values parts separate entries of the source, which are not always exact repeats. Identical values can stand only once. Like-named read-outs stand apart in the source and are kept apart here.

Key:
[1] = Visible precipitates in perfusion solution; assay type: physicochemical
Text: Point 7 (poorly deﬁned dose-response curves): The authors response would seem to explain why points may be missing from the left side of the plot (Fig 4e), but I don't think it explains their absence from the right side. The data points for the three mutants roughly deﬁne a straight line. In order to have a meaningful ﬁt that can be used to extract a reliable IC50, one needs to sample higher and lower concentrations than the authors have done.
While I understand that there may be technical limitations that make this difficult or impossible, I think scientiﬁc rigor still has to be maintained. If the experiment cannot be done properly due to technical limitations, that is ﬁne, but low quality data should not be interpreted and presented. […]
and include in a publication. I also still think that the way the authors are reporting signiﬁcant ﬁgures this is not good practice, though this aspect is more of a stylistic/precision issue.
In Fig. 4e, we added 25 nM and 10 µM data points for WT-CFTR, and the newly added data […]
added 10 µM data point for M348K-CFTR, so that for all tested mutants, the maximum [Inh-172] is 10 µM (All related ﬁgures in the main text are updated). We could not increase [Inh-172] further because precipitates were seen gushing out of our perfusion tubing at concentrations ≥ 20 µM. […]

W1145Y-CFTR = molecular target: T1, W1145Y-CFTR (Homo sapiens, UniProt P13569, W1145Y); assay: Inside-out patch-clamp inhibition of CFTR current by Inh-172; assay type: cell-based; conditions: for inhibition at 0.5 µM: 500 nM Inh-172; for inhibition at 5 µM: 5000 nM Inh-172; for inhibition at 10 µM: 10000 nM Inh-172
T1 construct: expressed in transfected cells; host or cells: CHO cells, pcDNA plasmid
T1 sequence (P13569 whole entry W1145Y): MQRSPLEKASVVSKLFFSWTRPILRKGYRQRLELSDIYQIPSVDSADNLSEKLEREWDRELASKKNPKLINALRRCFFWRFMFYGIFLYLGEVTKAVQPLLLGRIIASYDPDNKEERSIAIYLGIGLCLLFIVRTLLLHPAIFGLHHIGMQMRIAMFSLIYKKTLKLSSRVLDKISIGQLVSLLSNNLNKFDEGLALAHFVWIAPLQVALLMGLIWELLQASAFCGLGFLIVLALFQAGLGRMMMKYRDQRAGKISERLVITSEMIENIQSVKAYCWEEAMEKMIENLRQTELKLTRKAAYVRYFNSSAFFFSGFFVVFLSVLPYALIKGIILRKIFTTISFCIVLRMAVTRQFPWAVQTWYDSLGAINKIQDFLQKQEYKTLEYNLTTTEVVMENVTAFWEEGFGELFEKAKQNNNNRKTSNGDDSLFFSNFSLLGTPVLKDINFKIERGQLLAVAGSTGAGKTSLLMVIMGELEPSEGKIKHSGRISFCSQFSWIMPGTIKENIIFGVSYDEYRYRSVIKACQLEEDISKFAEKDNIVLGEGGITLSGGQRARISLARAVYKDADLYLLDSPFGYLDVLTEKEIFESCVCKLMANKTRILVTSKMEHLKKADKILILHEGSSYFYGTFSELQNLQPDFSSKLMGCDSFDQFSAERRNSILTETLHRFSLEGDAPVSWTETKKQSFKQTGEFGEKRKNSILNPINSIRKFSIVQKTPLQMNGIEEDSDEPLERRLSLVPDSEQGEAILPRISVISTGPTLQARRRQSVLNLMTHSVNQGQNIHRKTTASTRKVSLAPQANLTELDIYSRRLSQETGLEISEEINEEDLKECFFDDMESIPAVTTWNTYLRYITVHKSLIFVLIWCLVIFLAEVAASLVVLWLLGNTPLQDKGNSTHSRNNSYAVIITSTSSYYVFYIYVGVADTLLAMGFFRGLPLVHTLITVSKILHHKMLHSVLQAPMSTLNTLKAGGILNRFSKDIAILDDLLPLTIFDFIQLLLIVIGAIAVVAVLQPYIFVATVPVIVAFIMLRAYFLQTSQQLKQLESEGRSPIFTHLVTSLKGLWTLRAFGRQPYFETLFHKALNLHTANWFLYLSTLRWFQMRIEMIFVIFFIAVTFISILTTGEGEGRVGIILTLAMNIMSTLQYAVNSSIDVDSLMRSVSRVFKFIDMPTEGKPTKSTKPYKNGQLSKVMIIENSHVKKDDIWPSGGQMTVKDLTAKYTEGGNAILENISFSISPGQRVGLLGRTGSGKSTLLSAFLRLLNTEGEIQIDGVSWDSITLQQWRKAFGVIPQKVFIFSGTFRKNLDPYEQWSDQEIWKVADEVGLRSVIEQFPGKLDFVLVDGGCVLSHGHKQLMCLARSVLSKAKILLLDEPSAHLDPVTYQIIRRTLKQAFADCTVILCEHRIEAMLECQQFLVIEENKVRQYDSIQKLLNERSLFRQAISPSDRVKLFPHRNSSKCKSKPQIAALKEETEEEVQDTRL
Protocol: (§1) CHO cells were grown at 37 °C in Dulbecco’s modified Eagle’s medium supplemented with 10% (vol/vol) fetal bovine serum (Sigma-Aldrich, St. Louis, MO). pcDNA plasmids carrying the desired CFTR construct were transfected to CHO cells using PolyFect transfection reagent (Qiagen, Hilden, Germany) together with green fluorescence protein (GFP) cDNA (pEGFP-C3, Takara Bio, Shiga, Japan) that helps identify expression of CFTR. Cells were first incubated with the transfection reagents at 37 °C for 6-12 hours on sterile glass chips in 35-mm tissue culture dishes before transferred to 27 °C for incubation for 2–7 days. Primers for mutations were ordered from Integrated DNA Technologies (Coralville, IA) and were summarized in Supplementary Data. All CFTR mutants were prepared with QuikChange XL kit (Agilent, Santa Clara, CA) and sequenced at the DNA Core facility at University of Missouri-Columbia.
(§2) Patch-clamp pipettes were made from borosilicate capillary glass using a two-stage vertical puller (PP-81; Narishige, Amityville, NY). The pipette tips were fire polished with a homemade microforge to yield a pipette resistance of 2–5 MΩ when filled with a pipette solution containing (in mM): 140 NMDG-Cl (N-methyl-D-glucamine-chloride), 5 CaCl2, 2 MgCl2, and 10 HEPES, pH 7.4. For recordings, transfected cells on glass chips were transferred into a continuously perfused chamber on the stage of an inverted microscope (IX51; Olympus, Tokyo, Japan) with the perfusing solution containing (in mM): 150 NMDG-Cl, 2 MgCl2, 10 EGTA, 8 Tris, and 10 HEPES, pH 7.4. The membrane patch was excised to an inside-out configuration with a seal resistance >40 GΩ. CFTR currents were recorded with an amplifier (EPC9; HEKA, Holliston, MA), filtered through an eight-pole Bessel filter (LPF-8; Warner Instruments, Hamden, CT) at 100 Hz and digitized to a computer at a sampling rate of 500 Hz with Pulse software (version 8.53; HEKA). The membrane potential was held at −30 mV. Solution exchange was achieved by a fast solution change system (SF-77B; Warner Instruments). Inh-172 was obtained from the CFTR Chemical Compound Program supported by the Cystic Fibrosis Foundation. All experiments were performed at room temperature.
(§3) The steady state mean currents were measured in the Igor Pro software (version 8.0; WaveMetrics). The mean baseline currents were subtracted from the steady state mean currents before the data were used to determine the degrees of inhibition. The degrees of inhibition by CFTR inhibitor 172 were calculated based on the equation:1 %inhibition=1−IInh−172/I0X100% where I0 and Iinh−172 represent uninhibited and inhibited currents, respectively. The IC50 and Hill coefficients were obtained by fitting percent inhibition as a function of [Inh-172] with the Hill equation:2 %inhibition=base+(max−base)/1+xhalf/x^rate where max and base represent the […] percent inhibition by Inh-172, x represents the concentration of Inh-172, and the rate is the Hill coefficient. The estimated IC50 (xhalf) and Hill coefficients are listed in Table 1 as mean ± standard deviation. Each patch-clamp recording was made from a separate cell.

M348K-CFTR = molecular target: T2, M348K-CFTR (Homo sapiens, UniProt P13569, M348K); assay: as above; assay type: cell-based
T2 construct: expressed in transfected cells; host or cells: CHO cells, pcDNA plasmid
T2 sequence (P13569 whole entry M348K): as the sequence (P13569 whole entry W1145Y) above, with M348K, Y1145W counted along it
Protocol: as §1, §2, §3

K95A-CFTR = molecular target: T3, K95A-CFTR (Homo sapiens, UniProt P13569, K95A); assay: as above; assay type: cell-based
T3 construct: expressed in transfected cells; host or cells: CHO cells, pcDNA plasmid
T3 sequence (P13569 whole entry K95A): as the sequence (P13569 whole entry W1145Y) above, with K95A, Y1145W counted along it
Protocol: as §1, §2, §3

[2] = 100 nM Inh-172, read-out: percent inhibition of current, Mean
[3] = read-out: percent inhibition of current, Mean
[4] = read-out: percent inhibition of current, individual cell
[5] = 1000 nM Inh-172, read-out: percent inhibition of current, Mean
[6] = 500 nM Inh-172, read-out: percent inhibition of current, Mean
[7] = 1000 nM Inh-172, read-out: percent inhibition of current, individual cell
[8] = 5000 nM Inh-172, read-out: percent inhibition of current, Mean
[9] = 5000 nM Inh-172, read-out: percent inhibition of current, individual cell
[10] = 10000 nM Inh-172, read-out: percent inhibition of current, Mean
[11] = 10000 nM Inh-172, read-out: percent inhibition of current, individual cell

Question: For `O=C(O)c1ccc(/C=C2\SC(=S)N(c3cccc(C(F)(F)F)c3)C2=O)cc1` [Inh-172, CFTRinh-172], which “concentration at which precipitates were seen” value [1] is on record?
Answer: The value was ≥ 20 µM.

Question: What about the inhibition at 0.1 µM (W1145Y-CFTR; [2]) of the same compound?
Answer: Its inhibition at 0.1 µM is 10.8%.

Question: What about the inhibition at 0.5 µM (W1145Y-CFTR; [3]) of the same compound?
Answer: The inhibition at 0.5 µM was 38%.

Question: What about the inhibition at 0.5 µM (W1145Y-CFTR; [4]) of the same compound?
Answer: Its inhibition at 0.5 µM is 29%.

Question: And the inhibition at 1 µM (W1145Y-CFTR; [5])?
Answer: Its inhibition at 1 µM is 54%.

Question: And the inhibition at 5 µM (W1145Y-CFTR; [3])?
Answer: The inhibition at 5 µM was 82%.

Question: And the inhibition at 5 µM (W1145Y-CFTR; [4])?
Answer: Its inhibition at 5 µM is 77%.

Question: What about the inhibition at 10 µM (W1145Y-CFTR; [3]) of the same compound?
Answer: Its inhibition at 10 µM is 91.4%.

Question: What about the inhibition at 10 µM (W1145Y-CFTR; [4]) of the same compound?
Answer: The inhibition at 10 µM was 88%.

Question: What about the “Hill Coefficient” value (W1145Y-CFTR; W1145Y) of the same compound?
Answer: Its value is 0.92 ± 0.03.

Question: And the IC50 (W1145Y-CFTR; W1145Y)?
Answer: The IC50 was 870 ± 30 nM.

Question: What about the “percent inhibition of current, individual cell” value (“percent inhibition of current” below) (M348K-CFTR; 100 nM Inh-172) of the same compound?
Answer: The value was 10.0 and 17.0 and 1.0 and 23.0.

Question: And the inhibition at 0.1 µM (M348K-CFTR; [2])?
Answer: Its inhibition at 0.1 µM is 12.8%.

Question: What about the “percent inhibition of current” value (M348K-CFTR; 250 nM Inh-172) of the same compound?
Answer: The value was 31.0 and 36.0 and 35.0.

Question: What about the inhibition at 0.25 µM (M348K-CFTR; 250 nM Inh-172, read-out: percent inhibition of current, Mean) of the same compound?
Answer: The inhibition at 0.25 µM was 35.3%.

Question: What about the inhibition at 0.25 µM (M348K-CFTR; 250 nM Inh-172, read-out: percent inhibition of current, individual cell) of the same compound?
Answer: Its inhibition at 0.25 µM is 39%.

Question: And the “percent inhibition of current” value (M348K-CFTR; 500 nM Inh-172)?
Answer: Its value is 50.0 and 41.0 and 62.0 and 56.0 and 63.0.

Question: What about the inhibition at 0.5 µM (M348K-CFTR; [6]) of the same compound?
Answer: Its inhibition at 0.5 µM is 54.4%.

Question: And the “percent inhibition of current” value (M348K-CFTR; 1000 nM Inh-172)?
Answer: Its value is 61.0 and 64.0 and 60.0.

Question: What about the inhibition at 1 µM (M348K-CFTR; [5]) of the same compound?
Answer: Its inhibition at 1 µM is 64.2%.

Question: And the inhibition at 1 µM (M348K-CFTR; [7])?
Answer: The inhibition at 1 µM was 68%.

Question: What about the “percent inhibition of current” value (M348K-CFTR; 5000 nM Inh-172) of the same compound?
Answer: The value was 94.0 and 84.0 and 81.0.

Question: What about the inhibition at 5 µM (M348K-CFTR; [8]) of the same compound?
Answer: Its inhibition at 5 µM is 86.6%.

Question: And the inhibition at 5 µM (M348K-CFTR; [9])?
Answer: The inhibition at 5 µM was 90%.

Question: And the “percent inhibition of current” value (M348K-CFTR; 10000 nM Inh-172)?
Answer: Its value is 89.0 and 83.0.

Question: What about the inhibition at 10 µM (M348K-CFTR; [10]) of the same compound?
Answer: Its inhibition at 10 µM is 88%.

Question: What about the inhibition at 10 µM (M348K-CFTR; [11]) of the same compound?
Answer: The inhibition at 10 µM was 92%.

Question: What about the “Hill Coefficient” value (M348K-CFTR; M348K) of the same compound?
Answer: The value was 0.90 ± 0.10.

Question: And the IC50 (M348K-CFTR; M348K)?
Answer: The IC50 was 520 ± 60 nM.

Question: And the “percent inhibition of current” value (K95A-CFTR; 100 nM Inh-172)?
Answer: Its value is 10.0 and 13.0 and 19.0 and 9.0 and 7.0 and 15.0.

Question: What about the inhibition at 0.1 µM (K95A-CFTR; [2]) of the same compound?
Answer: Its inhibition at 0.1 µM is 12.2%.

Question: And the inhibition at 0.5 µM (K95A-CFTR; 0.5 µM Inh-172, read-out: K95A-CFTR current inhibited)?
Answer: The inhibition at 0.5 µM was ~40%.

Question: And the “percent inhibition of current” value (K95A-CFTR; 500 nM Inh-172)?
Answer: Its value is 23.0 and 38.0 and 46.0 and 31.0 and 29.0 and 42.0.

Question: And the inhibition at 0.5 µM (K95A-CFTR; [6])?
Answer: Its inhibition at 0.5 µM is 34.8%.

Question: And the “percent inhibition of current” value (K95A-CFTR; 1000 nM Inh-172)?
Answer: The value was 58.0 and 62.0 and 47.0 and 59.0.

Question: And the inhibition at 1 µM (K95A-CFTR; [5])?
Answer: The inhibition at 1 µM was 55.8%.

Question: And the inhibition at 1 µM (K95A-CFTR; [7])?
Answer: The inhibition at 1 µM was 51%.

Question: And the “percent inhibition of current” value (K95A-CFTR; 5000 nM Inh-172)?
Answer: The value was 88.0 and 84.0 and 81.0 and 85.0.

Question: And the inhibition at 5 µM (K95A-CFTR; [8])?
Answer: Its inhibition at 5 µM is 84.2%.

Question: And the inhibition at 5 µM (K95A-CFTR; [9])?
Answer: Its inhibition at 5 µM is 78%.

Question: What about the “percent inhibition of current” value (K95A-CFTR; 10000 nM Inh-172) of the same compound?
Answer: The value was 95.0 and 94.0 and 93.0 and 90.0.

Question: What about the inhibition at 10 µM (K95A-CFTR; [10]) of the same compound?
Answer: The inhibition at 10 µM was 92.3%.

Question: And the inhibition at 10 µM (K95A-CFTR; [11])?
Answer: The inhibition at 10 µM was 89%.

Question: And the “Hill Coefficient” value (K95A-CFTR; K95A)?
Answer: The value was 0.98 ± 0.05.

Question: What about the IC50 (K95A-CFTR; K95A) of the same compound?
Answer: The IC50 was 850 ± 50 nM.

Question: What about the IC50 (K95A-CFTR; K95A, earlier manuscript version, peer review file) of the same compound?
Answer: The IC50 was 852 nM.

Question: And the “increase of IC50 by K95A mutation vs WT” value (K95A-CFTR; cho cells inside-out patch)?
Answer: The value was 10 fold.
